In the NIST ThermoML archive (doi:10.1021/acs.jced.5b00845):

Experiment: mn = molality of the nth substance listed, in mol/kg
Details: 100 kPa, Liquid, Capillary tube (Ostwald / Ubbelohde) method

OC[C@H]1O[C@@](CO)(O[C@H]2O[C@H](CO)[C@@H](O)[C@H](O)[C@H]2O)[C@@H](O[C@H]2O[C@H](CO)[C@@H](O)[C@H](O)[C@H]2O)[C@@H]1O + O
viscosity [mPa·s]
Details	m1 = 0.06211	m1 = 0.07242	m1 = 0.08043	m1 = 0.09028	m1 = 0.1045	m1 = 0.1256	m1 = 0.1344	m1 = 0.1457
288.15 K	1.237	1.253	1.266	1.281	1.303	1.335	1.348	1.365
298.15 K	0.965	0.977	0.987	0.998	1.015	1.039	1.049	1.061
308.15 K	0.777	0.786	0.793	0.802	0.815	0.833	0.841	0.851
318.15 K	0.642	0.65	0.655	0.663	0.673	0.687	0.694	0.701

O=CC[C@H](O)[C@H](O)CO [2-deoxy-D-erythropentose] + O
viscosity [mPa·s]
Details	m1 = 0.05709	m1 = 0.07583	m1 = 0.09188	m1 = 0.09812	m1 = 0.1124	m1 = 0.1366	m1 = 0.1466
288.15 K	1.163	1.172	1.179	1.181	1.188	1.198	1.202
298.15 K	0.909	0.915	0.92	0.922	0.927	0.935	0.938
308.15 K	0.734	0.738	0.742	0.744	0.747	0.753	0.755
318.15 K	0.607	0.611	0.614	0.615	0.618	0.623	0.624

OC[C@H]1OC(O)C[C@@H](O)[C@@H]1O (stereo partly drawn) [2-deoxy-D-glucose] + O
viscosity [mPa·s]
Details	m1 = 0.04241	m1 = 0.05017	m1 = 0.05842	m1 = 0.08671	m1 = 0.09745	m1 = 0.1223	m1 = 0.141
288.15 K	1.16	1.164	1.168	1.182	1.188	1.2	1.21
298.15 K	0.907	0.909	0.913	0.923	0.927	0.936	0.943
308.15 K	0.732	0.734	0.736	0.744	0.747	0.754	0.76
318.15 K	0.606	0.608	0.609	0.616	0.618	0.624	0.628

O=C[C@H](O)[C@@H](O)[C@H](O[C@@H]1O[C@H](CO)[C@H](O)[C@H](O)[C@H]1O)[C@H](O)CO [4-O-β-D-galactopyranosyl-D-glucose] + O
viscosity [mPa·s]
Details	m1 = 0.04915	m1 = 0.0521	m1 = 0.06429	m1 = 0.07299	m1 = 0.09149	m1 = 0.1001	m1 = 0.1211	m1 = 0.1528
288.15 K	1.198	1.202	1.216	1.227	1.249	1.259	1.284	1.321
298.15 K	0.936	0.938	0.949	0.957	0.974	0.982	1	1.028
308.15 K	0.755	0.757	0.766	0.772	0.785	0.791	0.806	0.828
318.15 K	0.625	0.626	0.633	0.638	0.649	0.654	0.665	0.683

C[C@@H]1O[C@@H](O)[C@H](O)[C@H](O)[C@H]1O [6-deoxy-α-L-mannopyranose] + O
viscosity [mPa·s]
Details	m1 = 0.04655	m1 = 0.05637	m1 = 0.08317	m1 = 0.0856	m1 = 0.1109	m1 = 0.1248	m1 = 0.1471
288.15 K	1.165	1.171	1.186	1.187	1.202	1.21	1.222
298.15 K	0.91	0.914	0.925	0.926	0.937	0.943	0.952
308.15 K	0.734	0.737	0.746	0.747	0.755	0.759	0.766
318.15 K	0.608	0.61	0.617	0.618	0.623	0.627	0.632

OC[C@H]1O[C@@H](O[C@H]2[C@H](O)[C@@H](O)[C@H](O)O[C@@H]2CO)[C@H](O)[C@@H](O)[C@@H]1O [D-cellobiose] + O
viscosity [mPa·s]
Details	m1 = 0.0502	m1 = 0.06216	m1 = 0.07229	m1 = 0.08229	m1 = 0.09269	m1 = 0.1031	m1 = 0.1292	m1 = 0.152
288.15 K	1.19	1.202	1.212	1.222	1.233	1.243	1.269	1.291
298.15 K	0.929	0.938	0.946	0.953	0.961	0.969	0.988	1.005
308.15 K	0.749	0.756	0.762	0.768	0.774	0.78	0.795	0.808
318.15 K	0.62	0.625	0.63	0.635	0.64	0.644	0.656	0.666

O=C[C@H](O)[C@@H](O)[C@H](O)[C@H](O)CO [D-glucose] + O
viscosity [mPa·s]
Details	m1 = 0.05335	m1 = 0.06616	m1 = 0.08424	m1 = 0.1038	m1 = 0.1142	m1 = 0.1323
288.15 K	1.167	1.175	1.185	1.196	1.202	1.211
298.15 K	0.912	0.918	0.924	0.932	0.936	0.943
308.15 K	0.736	0.74	0.744	0.75	0.754	0.759
318.15 K	0.609	0.612	0.616	0.621	0.623	0.628

O=C[C@@H](O)[C@@H](O)[C@H](O)[C@H](O)CO [D-mannose] + O
viscosity [mPa·s]
Details	m1 = 0.0537	m1 = 0.07266	m1 = 0.08053	m1 = 0.08978	m1 = 0.1058	m1 = 0.1176
288.15 K	1.169	1.179	1.184	1.189	1.199	1.206
298.15 K	0.912	0.92	0.924	0.928	0.934	0.939
308.15 K	0.736	0.741	0.744	0.747	0.753	0.756
318.15 K	0.609	0.614	0.616	0.618	0.622	0.625

OC[C@H]1O[C@H](OC[C@H]2O[C@H](O[C@]3(CO)O[C@H](CO)[C@@H](O)[C@@H]3O)[C@H](O)[C@@H](O)[C@@H]2O)[C@H](O)[C@@H](O)[C@H]1O [D-raffinose] + O
viscosity [mPa·s]
Details	m1 = 0.0515	m1 = 0.06262	m1 = 0.08002	m1 = 0.09691	m1 = 0.1085	m1 = 0.1133	m1 = 0.1273	m1 = 0.1387
288.15 K	1.227	1.246	1.275	1.303	1.322	1.33	1.353	1.371
298.15 K	0.957	0.971	0.993	1.014	1.028	1.034	1.051	1.065
308.15 K	0.771	0.782	0.799	0.816	0.827	0.831	0.845	0.855
318.15 K	0.637	0.646	0.659	0.672	0.681	0.684	0.695	0.703

O=C[C@H](O)[C@H](O)[C@H](O)CO [D-ribose] + O
viscosity [mPa·s]
Details	m1 = 0.05682	m1 = 0.06586	m1 = 0.07814	m1 = 0.09455	m1 = 0.1051	m1 = 0.1285
288.15 K	1.159	1.163	1.168	1.174	1.178	1.187
298.15 K	0.906	0.909	0.912	0.917	0.919	0.926
308.15 K	0.731	0.733	0.736	0.739	0.741	0.746
318.15 K	0.605	0.607	0.609	0.612	0.614	0.618
